Results on 7 compounds are retold here after patent publication US7456216B2, “Methods for the preparation and formulation of l-carnitine valproate salts” (BioLink Life Sciences, Inc., priority 2007, dated 2008).

Data set [1] in a line: Storage in ambient atmosphere, gross weight monitored over 6 days (hygroscopicity). The note with it: for Conclusion & Observations (hygroscopicity): 6 days in ambient atmosphere; for Net weight, final / Change of net weight, final vs initial: after 6 days in ambient atmosphere; for Net weight, initial: weighed portion before exposure to ambient atmosphere. It counts as physicochemical. How it is done: The effects of storage of the L-carnitine valproate salts of Examples 1 and 2 in ambient atmospheres were monitored for 6 days. For comparison, L-carnitine (Sigma Aldrich Chemical Co.), sodium valproate (Sigma Aldrich Chemical Co.), and divalproex sodium were also monitored in the same manner. The experiment was performed by weighing portions of each compound into a tared glass container and periodically monitoring the gross weight of the compound+container over a 6 day period.

For data set [2] the following is noted: conventional L-carnitine; cited from earlier work.
The conditions of data set [3]: cited from earlier work.
A short description of data set [4]: Storage in a closed and sealed container (stability, odor). The format is physicochemical. As to conditions: for Odor detected during storage: trimethylamine odor indicates degradation. The text has this: L-Carnitine magnesium salts of the present invention are stable when stored in a closed and sealed container. […] Both L-carnitine calcium valproate and L-carnitine magnesium valproate are converted to the corresponding hydrates by exposure to water vapor in the atmosphere. Each hydrate has a characteristic melting point.

A short description of data set [5]: Solubility in water or aqueous solutions. It counts as physicochemical.
A further data set has as its system deacetylase. As to conditions: dose between 20 and 40 mg/kg; patients with cervical cancer; cited from earlier work.

Consider `CCCC(CCC)C(=O)O` [Divalproex sodium, reference compound], for which, in data set [1], the “Conclusion & Observations (hygroscopicity)” value (“Conclusion & Observations” below) was “Mass of the material did not change. Material is not hygroscopic”; the “Net weight, final” value was 100 mg; the “Net weight, initial” value is on record as 100 mg.

As for `C[N+](C)(C)C[C@H](O)CC(=O)[O-]` [L-Carnitine, L-(−)-Carnitine], in data set [2], the “Bioavailability of L-carnitine” value is on record as 15-20 % of the administered dose. For the same compound, in data set [1], the “Conclusion & Observations” value is on record as “Material is hygroscopic”; the “Net weight, final” value is more than 227 mg; the “Net weight, initial” value stood at 208 mg.

Turning to `CCCC(CCC)C(=O)[O-].[Na+]` [Sodium valproate, reference compound], the “Conclusion & Observations” value in data set [1] is recorded as “very hygroscopic”.

For `CCCC(CCC)C(=O)O` [Valproic acid, 2-propylpentanoic acid], the Solubility in water entry in data set [3] is reported as “very slightly soluble in water”.

As for L-carnitine calcium valproate, in data set [4], the Stability during storage entry is given as “stable” and the “Odor detected during storage” value is listed as “no odor is detected”. Further, in data set [1], the “Conclusion & Observations” value is “Appearance and mobility of the material did not change. Material absorbed water”; the “Change of net weight, final vs initial” value is on record as “(+5%)”; the “Net weight, final” value worked out at 202 mg; the “Net weight, initial” value is reported as 194 mg.

As for L-carnitine magnesium valproate, in data set [4], the Stability during storage entry is reported as “stable” and the “Odor detected during storage” value is recorded as “a slight odor of trimethylamine is detected”. Besides, in data set [1], the “Conclusion & Observations” value is “Material absorbed water and was converted to a hydrate, which is further”; the “Change of net weight, final vs initial” value is “(+15%)”; the “Net weight, final” value came out at 163 mg; the “Net weight, initial” value is given as 142 mg. Moreover, the “Solubility in water or aqueous solutions” value in data set [5] is given as “readily dissolved in water or aqueous solutions”.

For “magnesium 2-propylvalerate [magnesium valproate]”, the “Deacetylase activity in tumor tissues” value in the data set with deacetylase was “inhibits deacetylase activity and hyperacetylates histones in tumor tissues”.
